Converted amounts (≈) assume the structure as drawn.
These compounds were tested on Vaccinia virus (assay: Antiviral activity against Vaccinia virus-induced cytopathogenicity in E6SM cells). Details: Orthopoxvirus vaccinia.
Type: functional

`O=C1O/C(=C\Cn2cc(-c3ccccc3)c(=O)[nH]c2=O)C(OCc2ccccc2)=C1OCc1ccccc1` and `O=C1O/C(=C\Cn2cc(C#Cc3ccccc3)c(=O)[nH]c2=O)C(OCc2ccccc2)=C1OCc1ccccc1` cannot be ordered by MIC: 95 µM (≈ 48.3 µg/mL) for the first, > 40 µM for the second.

`O=C1O/C(=C(\Br)Cn2c(Br)c(/C=C/Br)c(=O)[nH]c2=O)C(OCc2ccccc2)=C1OCc1ccccc1` and `O=C1O/C(=C\Cn2cc(/C=C/Br)c(=O)[nH]c2=O)C(OCc2ccccc2)=C1OCc1ccccc1` cannot be ordered by MIC: > 116 µM for the first, > 150 µM for the second.

`CC#Cc1cn(C/C=C2\OC(=O)C(OCc3ccccc3)=C2OCc2ccccc2)c(=O)[nH]c1=O` and `C=C=Cc1cn(C/C=C2\OC(=O)C(OCc3ccccc3)=C2OCc2ccccc2)c(=O)[nH]c1=O` cannot be ordered by MIC: > 0.4 µM for the first, > 8 µM for the second.

`O=C1O/C(=C\Cn2cc(-c3cccs3)c(=O)[nH]c2=O)C(OCc2ccccc2)=C1OCc1ccccc1` and `O=C1O/C(=C\Cn2cc(-c3ccco3)c(=O)[nH]c2=O)C(OCc2ccccc2)=C1OCc1ccccc1` cannot be ordered by MIC: > 156 µM for the first, > 6.4 µM for the second.

`O=C1O/C(=C\Cn2cc(-c3ccc(Cl)o3)c(=O)[nH]c2=O)C(OCc2ccccc2)=C1OCc1ccccc1` and `O=C1O/C(=C\Cn2cc(-c3ccc(Br)o3)c(=O)[nH]c2=O)C(OCc2ccccc2)=C1OCc1ccccc1` cannot be ordered by MIC: > 150 µM for the first, > 70 µM for the second.

`C=Cc1cn(C/C=C2\OC(=O)C(O)=C2O)c(=O)[nH]c1=O` and `C=CCc1cn(C/C=C2\OC(=O)C(OCc3ccccc3)=C2OCc2ccccc2)c(=O)[nH]c1=O` cannot be ordered by MIC: > 144 µM for the first, > 8 µM for the second.

First: Nc1nc2c(ncn2COCCO)c(=O)[nH]1 [ACYCLOVIR]
Second: Nc1nc2c(ncn2COC(CO)CO)c(=O)[nH]1 [GANCICLOVIR]
The MIC of the first is 5-fold higher: 300 µM (≈ 67.6 µg/mL) for the first, 60 µM (≈ 15.3 µg/mL) for the second.

Going from `O=c1[nH]c(=O)n([C@H]2C[C@H](O)[C@@H](CO)O2)cc1/C=C/Br` [BRIVUDINE] to `NC(=O)c1ncn([C@@H]2O[C@H](CO)[C@@H](O)[C@H]2O)n1` [RIBAVIRIN], the MIC rises from 2.4 µM (≈ 0.8 µg/mL) to 100 µM (≈ 24.4 µg/mL) (42-fold).

These compounds were tested on Vaccinia virus (assay: Antiviral activity against Vaccinia virus-induced cytopathogenicity in HEL cells). Details: Orthopoxvirus vaccinia.
Type: functional

`C=Cc1cn(C/C=C2\OC(=O)C(OCc3ccccc3)=C2OCc2ccccc2)c(=O)[nH]c1=O` and `C#Cc1cn(C/C=C2\OC(=O)C(OCc3ccccc3)=C2OCc2ccccc2)c(=O)[nH]c1=O` cannot be ordered by MIC: > 18 µM for the first, > 18 µM for the second.

Compared with `O=C1O/C(=C\Cn2cc(C#Cc3ccccc3)c(=O)[nH]c2=O)C(O)=C1O`, `O=C1O/C(=C\Cn2cc(-c3ccccc3)c(=O)[nH]c2=O)C(O)=C1O` is higher in MIC: 4 µM (≈ 1.41 µg/mL) for the first, > 100 µM for the second.

Compared with `C#Cc1cn(C/C=C2\OC(=O)C(O)=C2O)c(=O)[nH]c1=O`, `O=C1O/C(=C\Cn2cc(-c3ccco3)c(=O)[nH]c2=O)C(O)=C1O` is higher in MIC: 4 µM (≈ 1.1 µg/mL) for the first, > 100 µM for the second.

Going from `CC(C)=CCc1cn(C/C=C2\OC(=O)C(OCc3ccccc3)=C2OCc2ccccc2)c(=O)[nH]c1=O` to `O=C1O/C(=C\Cn2cc(-c3cccs3)c(=O)[nH]c2=O)C(O)=C1O`, the MIC rises from 4 µM (≈ 2 µg/mL) to > 100 µM.
